{
  "source": "patent US9669000B2",
  "about": "“Pharmaceutical compositions comprising lignans and their derivatives for treating hyperplastic diseases” (Universität Innsbruck, priority 2008, dated 2017)",
  "key": {"[1]": {"tested_on": "human vascular smooth muscle cells (SMCs)", "test": "XTT cell proliferation assay, smooth muscle cells", "assay_type": "cell-based", "details": "for IC50: XTT assay after 72 h, mean of three independent experiments, read-out: IC50, SMC proliferation-inhibitory activity", "excerpt": "Human umbilical vein endothelial cells (HUVECs) were isolated from umbilical cords (kindly donated by the Gynecology and Obstetrics Department, Innsbruck Medical University) by enzymatic detachment using collagenase, as previously described; see Bernhard, FASEB J 17(15), 2302-4 (2003). Human umbilical vein smooth muscle cells (SMCs) were isolated from the same umbilical cords according to Chamley-Campbell, Physiol Rev 59(1), 1-61 (1979). SMCs were routinely passaged in 0.2% gelatine-coated (Sigma, Steinheim, Germany) polystyrene culture flasks (Becton Dickinson, Meylan Cedex, France) in Medium 231 (Cascade Biologics, Paisley, UK). The isolation and analysis of human umbilical cord ECs and SMCs has been approved by the Ethics Committee of the Innsbruck Medical University.\n(§1) Cell proliferation was measured by the XTT cell proliferation assay (Biomol, Hamburg, Germany) as described by the manufacturer. The XTT assay is based on the ability of metabolic active cells to reduce the tetrazolium salt XTT to orange coloured compounds of formazan. The dye formed is water soluble and the dye intensity can be read at a given wavelength with a spectrophotometer. The intensity of the dye is proportional to the number of metabolic active cells. In addition to the XTT assay all proliferation-experiments were also evaluated by counting cells in a coulter counter.\nas §1, with “As described above (Example 1) cell” for “Cell”, “cells.” for “cells. In addition to the XTT assay all proliferation-experiments were also evaluated by counting cells in a coulter counter.”"}, "SMCs [2]": {"tested_on": "SMCs", "details": "associated with upregulation of p21/WAF1; cited from earlier work"}, "[3]": {"tested_on": "intimal hyperplasia after balloon injury", "details": "in vivo; cited from earlier work"}, "[4]": {"tested_on": "human vascular smooth muscle cells (SMCs)", "test": "Cell death by AnnexinV-propidium iodide method and FACS, SMCs", "assay_type": "cell-based", "details": "after 48 hour", "experimental": "(§2) In order to investigate the effect of leoligin on the cellular level, isolated primary human vascular smooth muscle cells (SMCs) were incubated with the indicated concentrations of leoligin for the indicated times. […] Values shown are mean values from a representative experiment performed in triplicates. […] Values shown are mean values from three independent experiments+/−S.D. The histogram blots in FIG. 3C show the results from a DNA content analysis of control-treated or leoligin-treated SMCs after 24 hours of incubation (upper row, left histogram . . . solvent control; upper row, right histogram . . . leoligin).\n(§3) For detection and/or quantification of cell death, forward/sideward light scattering analysis, the AnnexinV-propidium iodide method, and staining of nuclear DNA content (cell cycle analyses) were used as described; see Bernhard FASEB J 13(14), 1991-2001 (1999)."}, "human saphenous veins": {"tested_on": "human saphenous veins", "test": "Human saphenous vein organ culture model of intimal hyperplasia", "details": "added freshly every second day over 2 weeks", "experimental": "(§4) Following fixation in 4% paraformaldehyde and dehydration of tissues from organ culture and mouse experimentation, tissues were embedded in paraffin (venae cavae from the in vivo experiments were embedded into mouse liver prior to fixation) and sections were prepared. Immunohistochemistry was performed with the Accustain Elastica Stain (HT25) kit (Sigma-Aldrich, USA) or the En Vision+System-HRP (DAB) (DakoCytomation, Denmark) according to the manufacturers instructions. Primary antibodies used were anti-p27/KIP-1 antibody (clone 57; BD Transduction Laboratories), and anti-CD31/PECAM-1 antibody (clone JC70A, Dako Cytomation). Image analyses were performed using the Image J software of the National Institute of Health (USA)."}, "[5]": {"tested_on": "primary human vascular endothelial cells (ECs)", "test": "XTT cell proliferation assay, endothelial cells", "assay_type": "cell-based", "excerpt": "(§5) Values shown are mean values from a representative experiment performed in triplicates."}, "[6]": {"tested_on": "primary human vascular endothelial cells (ECs)", "test": "Cell viability by annexin V/propidium iodide method and FACS, ECs", "assay_type": "cell-based", "details": "48 hours", "experimental": "(§6) Primary human vascular endothelial cells (ECs) were incubated with the indicated concentrations of leoligin for the indicated times. […] Values shown are mean values from a representative experiment performed in triplicates. […] Values shown are mean values from three independent experiments+/−S.D. The impact of leoligin on TNFalpha-induced surface expression of VCAM-1, ICAM-1, and E-selectin (E-Sel) is shown in the three diagrams in FIG. 4C. Data shown are mean fluorescence intensities (MFI) of representative experiments. […] After protein preparation, total cellular proteins were separated on polyacrylamide gels, gel were dried and analysed by exposure to x-ray films.\nas §3"}, "p27/KIP": {"tested_on": "p27/KIP", "test": "Western blot of p27/KIP in SMCs", "assay_type": "cell-based, human", "details": "SMCs incubated 24 hours; shift from 27 kD to 58 kD signal", "experimental": "as §2\nWestern blotting was performed as previously described; see Bernhard, Cell Death Differ 8(10), 1014-21 (2001). Primary antibodies used were anti-p27/KIP-1 antibody (clone 57; BD Transduction Laboratories)."}, "VCAM-1 [7]": {"tested_on": "VCAM-1", "test": "FACS analysis of TNFalpha-induced surface adhesion molecule expression on ECs", "assay_type": "cell-based, human", "excerpt": "as §5"}, "[8]": {"tested_on": "venous bypass graft intimal hyperplasia", "test": "Mouse model for vein graft disease (vena cava interposed into carotid artery)", "assay_type": "in vivo", "experimental": "Before wound closure after the transplantation, a peradventitial depot of 100 μl of 0.9% NaCl (control) or 100 μl of 100 μM leoligin in 0.9% NaCl were applied. After 4 weeks conduits were removed and subjected to morphometric analyses and to immunohistochemistry. FIG. 5B: the upper two images show a Elastica van Giesson stain of sections of the venous conduits. White arrows indicate neointimal thickness which was analysed by morphometry (see FIG. 5A). Central images display a staining for the endothelial cell CD31/PECAM-1 antigen (brown, black arrows) combined with a hematoxilin stain. […] The abbreviations “Lu” and “Li” stand for the full terms “lumen” and “liver”, respectively.\nIn the applied mouse model the vena cava of a donor mouse was interposed into the carotid artery of a recipient mouse. After transplantation and prior to wound closure a 100 μl depot of 0.9% NaCl (control group) or 100 μM leoligin in 0.9% NaCl (leoligin group) was placed around the adventitia of the vein graft in the recipient mouse. 4 weeks after the intervention mice were sacrificed and the interposed venae cavae were harvested for analyses. […] For details on the surgical procedure see Schachner, Eur J Cardiothorac Surg 30(3), 451-63 (2006); Schachner, Heart Surg Forum 9(1), E515-E517 (2006). Animal experiments were approved by the Commission for Animal Testing Affairs of the Austrian Ministry for Science and Research.\nas §4"}, "[9]": {"tested_on": "human vascular smooth muscle cells (SMCs)", "test": "Nuclear DNA content (cell cycle) analysis, SMCs", "assay_type": "cell-based", "details": "24 hours of incubation", "experimental": "In order to investigate the effect of leoligin on the cellular level, isolated primary human vascular smooth muscle cells (SMCs) were incubated with the indicated concentrations of leoligin for the indicated times. […] Values shown are mean values from a representative experiment performed in triplicates.\nas §3"}, "[10]": {"tested_on": "primary human vascular endothelial cells (ECs)", "test": "Metabolic protein labelling with 35S-methionine/cysteine in ECs", "assay_type": "cell-based", "experimental": "as §6\nMetabolic labelling with ^35S-methionine/cysteine was performed as previously described (Bernhard (2001), loc. cit.)."}, "SMCs [11]": {"tested_on": "SMCs", "details": "caspase-dependent manner; cited from earlier work"}, "VCAM-1 [12]": {"tested_on": "VCAM-1", "details": "ECs; cited from earlier work"}, "[13]": {"details": "100 μl of 100 μM leoligin, 4 weeks"}},
  "note": "Where two headings read alike, the source gives them in different places.",
  "data": [
    {"smiles": "C/C=C(/C)C(=O)OC[C@H]1[C@@H](Cc2ccc(O)c(OC)c2)CO[C@@H]1c1cc(OC)c(OC)c(OC)c1", "note": "[5-methoxy-leoligin]", "values": [
      {"measurement": "IC50", "setting": "[1]; Homo sapiens", "value": 45.9, "unit": "µM"}
    ]},
    {"smiles": "COc1cc(C[C@H]2CO[C@H](c3ccc(O)c(OC)c3)[C@H]2CO)ccc1O", "note": "[lariciresinol, reference compound]", "values": [
      {"measurement": "IC50", "setting": "[1]; Homo sapiens", "value": "> 100", "unit": "µM"}
    ]},
    {"smiles": "C=CCc1ccc(O)c(-c2ccc(O)c(CC=C)c2)c1", "note": "[Honokiol, honokiol]", "values": [
      {"measurement": "cell cycle in SMCs", "setting": "SMCs [2]", "value": "arrest in the G1 phase of the cell cycle"}
    ]},
    {"smiles": "C/C=C(/C)C(=O)OC[C@H]1[C@@H](Cc2cc(OC)c(OC)c(OC)c2)CO[C@@H]1c1cc(OC)c(OC)c(OC)c1", "note": "[5,5′-dimethoxy-leoligin]", "values": [
      {"measurement": "IC50", "setting": "[1]; Homo sapiens", "value": 48.6, "unit": "µM"}
    ]},
    {"smiles": "COc1cc([C@@H]2c3cc4c(cc3[C@H](O)[C@H]3COC(=O)[C@@H]23)OCO4)cc(OC)c1OC", "note": "[picropodophyllin]", "values": [
      {"measurement": "intimal hyperplasia after balloon injury", "setting": "[3]", "value": "inhibits intimal hyperplasia after balloon injury in vivo"}
    ]},
    {"smiles": "C/C=C(/C)C(=O)OC[C@H]1[C@@H](Cc2ccc(OC)c(OC)c2)CO[C@@H]1c1cc(OC)c(OC)c(OC)c1", "note": "[5-methoxy-leoligin]", "values": [
      {"measurement": "IC50", "setting": "[1]", "value": 45.9, "unit": "µM"}
    ]},
    {"smiles": "C/C=C(/C)C(=O)OC[C@H]1[C@@H](Cc2ccc(OC)c(OC)c2)CO[C@@H]1c1ccc(OC)c(OC)c1", "note": "[leoligin]", "values": [
      {"measurement": "cell death (apoptosis and necrosis) in SMCs", "setting": "[4]", "value": "only a marginal increase in cell death"},
      {"measurement": "intimal hyperplasia of saphenous veins in organ culture", "setting": "human saphenous veins; 5 μM leoligin, p=0.003", "value": "completely inhibited intimal hyperplasia"},
      {"measurement": "pre-existing intimal hyperplasia of saphenous veins in organ culture", "setting": "human saphenous veins; 50 μM leoligin, p<0.001", "value": "even reversed pre-existing intimal hyperplasia"},
      {"measurement": "proliferation of ECs", "setting": "[5]", "value": "inhibited the proliferation of ECs"},
      {"measurement": "toxic or cell death-inducing effect on ECs", "setting": "[6]", "value": "no toxic or cell death-inducing effect"},
      {"measurement": "p27/KIP protein (Western blot)", "setting": "p27/KIP", "value": "complete change in the appearance of p27/KIP protein"},
      {"measurement": "TNFalpha-mediated surface expression of VCAM-1", "setting": "VCAM-1 [7]", "value": "inhibited TNFalpha-mediated surface expression of VCAM-1"},
      {"measurement": "endothelial layer (CD31 staining) of conduits", "setting": "[8]; [13]", "value": "intact"},
      {"measurement": "neointimal thickness of vein grafts", "setting": "[8]; [13]", "value": "significantly reduced neointimal thickness"},
      {"measurement": "p27/KIP staining of graft sections", "setting": "[8]; four weeks after the application", "value": "stained positive for p27/KIP"},
      {"measurement": "animals with no blood flow due to thromboses after 4 weeks", "setting": "[8]; of 7 animals per group (3 in control)", "value": 2},
      {"measurement": "intimal hyperplasia in vivo", "setting": "[8]; periadvential reservoir 100 μl of 100 μM leoligin in 0.9% NaCl, 4 weeks", "value": "potently inhibited intimal hyperplasia in vivo"},
      {"measurement": "cell cycle distribution (nuclear DNA content)", "setting": "[9]", "value": "massive accumulation of cells in the G1-phase"},
      {"measurement": "IC50", "setting": "[1]; Homo sapiens", "value": 54.5, "unit": "µM"},
      {"measurement": "SMC proliferation (XTT assay, cell counting)", "setting": "[1]; result in words", "value": "significant SMC proliferation inhibitory effect"},
      {"measurement": "protein synthesis in ECs", "setting": "[10]", "value": "does not block protein synthesis"}
    ]},
    {"smiles": "C=CCc1ccc(O)c(-c2cc(CC=C)ccc2O)c1", "note": "[Magnolol, magnolol]", "values": [
      {"measurement": "cell death in SMCs", "setting": "SMCs [11]", "value": "induce cell death in SMCs"},
      {"measurement": "TNFalpha-mediated VCAM-1 expression", "setting": "VCAM-1 [12]", "value": "inhibit TNFalpha-mediated VCAM-1 expression"}
    ]}
  ]
}
